Molecules are shown by their SMILES. Values after ≈ are worked out from the molar mass of the structure shown. Where a name gives a salt, the structure may show the parent alone. Read-outs that look alike come from different tables or passages of the source. Marks after values point to notes of the source that are not given here.

In general, MIC refers to the smallest concentration in the dilution series that meets the test's criterion for growth inhibition.

In one series the test system is E. coli NIHJ. As to the kind of experiment: Antibacterial activity (MIC), standard method of the Japan Society of Chemotherapy. The format is cell-based. The following applies: Escherichia coli. Here is the method: (§1) The antimicrobial activities of the compounds of the present invention were determined according to a standard method designated by the Japan Society of Chemotherapy. The results are expressed by MIC (μg/mL) (Table 1). In Table 1, S. aureus 870307 and S. pneumonia J24 are quinolone-resistant bacteria.

The subject of the next series is E. faevcalis ATCC 19433. The description is as above. The format is cell-based. Here is the method: as §1
The subject of the next series is K. pneumoniae TYPE I. The series is described as above. The class given is cell-based. Particulars: Klebsiella pneumoniae. Here is the method: as §1
The subject of the next series is P. Vulgalis 08601. Described as above. The class given is cell-based. Here is the method: as §1
A further series deals with P. aeruginosa 32104. The series is described as above. The format is cell-based. The following applies: Pseudomonas aeruginosa. Here is the method:
as §1

The subject of the next series is P. aeruginosa 32121. The series is described as above. The class given is cell-based. The following applies: Pseudomonas aeruginosa. Here is the method:
as §1

The subject of a further series is S. aureus 870307. Described as above. The format is cell-based. The following applies: Staphylococcus aureus. Here is the method:
as §1

The subject of the next series is S. aureus FDA 209P. The series is described as above. The format is cell-based. The following applies: Staphylococcus aureus, FDA209P. Here is the method: as §1
A further series concerns S. epidermidis 56500. The description is as above. The class given is cell-based. The following applies: Staphylococcus epidermidis. Here is the method: as §1
For another series, the system named is S. flexneri 2A 5503. The description is as above. The class given is cell-based. The following applies: Shigella flexneri, 2A5503, read-out: MIC. Here is the method:
as §1

A further series has as its system S. maltophilia IID 1275. The description is as above. Particulars: Stenotrophomonas maltophilia, IID1275. The class given is cell-based. Here is the method: as §1
For a further series, the system named is S. marcescens 10100. Described as above. The class given is cell-based. Particulars: Serratia marcescens. Here is the method:
as §1

The next series has as its system S. pneumoniae J24. The description is as above. The format is cell-based. Particulars: Streptococcus pneumoniae. Here is the method: as §1
The subject of another series is S. pyogenes G-36. The description is as above. The following applies: Streptococcus pyogenes, G36. The format is cell-based. Here is the method: as §1
The test system of the next series is Slc:ddY male mice. As to the kind of experiment: Effect of inducing convulsion, intracisternal administration to mice. Particulars: i.cist., Probit method. The format is in vivo. Here is the method: The compounds (Compound Nos. 1, 2, and 3) of the present invention and Comparative Compounds A and B were individually dissolved in 5% glucose, to thereby prepare several samples to be tested. Groups of six-week-old Slc:ddY male mice (body weight: 23.9 to 27.4 g), each group consisting of 6 mice, were employed in the test. Each of the above-prepared samples was administered intracisternally to each mouse belonging to each group at concentrations shown in Tables 2 and 3 (5 μL/mouse). During 30 minutes after administration, it was observed whether each mouse suffered convulsion or died in an individual cage. Administration was performed according to the method described by Ueda, et al. (Reference 1).
Reference 1: Ueda H, Amano H, Shiomi H, Takagi H: Comparison of the analgesic effects of various opioid peptides by a newly devised intracisternal injection technique in conscious mice. Eur J Pharmacol. 1979; 56: 265-8.
Significant difference test between groups was performed in terms of incidence of convulsion according to the Fisher's direct probability calculation method (one-sided test, level of significance: P<0.05). On the basis of percentile incidence of convulsion, CD50 (50% concentration for inducing convulsion) and 95% confidence limit were calculated by the Probit method.

For series [1], the system named is Chinese hamster lung (CHL/IU) cells. As to the kind of experiment: Effect of inducing chromosomal aberration. The format is cell-based. The following applies: for Percentile induction of structural aberration (TA %): 24 hours, CHL/IU cells; for Significant increase in number of the cells exhibiting chromosomal aberration: at a concentration of up to 100 μg/mL. Here is the method: From each sample solution, samples to be tested having a concentration of 1, 3, 10, 30, 50, and 100 μg/mL (as reduced to free form) were prepared. As a negative control, 0.1 mol/L NaOH was employed.
Chinese hamster lung (CHL/IU) cells in logarithmic growth phase were employed. The cells were treated in a culture solution containing each sample to be tested for 24 hours. Subsequently, a chromosome specimen was prepared from the thus-treated cells. The culture solution employed was an Eagle's MEM (product of NISSUI PHARMACEUTICAL CO., LTD.) medium containing 15% fetal bovine serum (15% FBS-MEM).
In each sample concentration, 100 cells during metaphase were observed, to thereby record types and numbers of the chromosomal aberration.

Setting [2] is: E. faevcalis ATCC 19433, read-out: MIC.
Where [3] appears, read: K. pneumoniae TYPE I, read-out: MIC.
[4] abbreviates: P. Vulgalis 08601, read-out: MIC.
The mark [5] stands for this setting: P. aeruginosa 32104, read-out: MIC.
The mark [6] stands for this setting: P. aeruginosa 32121, read-out: MIC.
Where [7] appears, read: S. aureus 870307, quinolone-resistant, read-out: MIC.
The mark [8] stands for this setting: S. aureus FDA 209P, read-out: MIC.
Where [9] appears, read: S. epidermidis 56500, read-out: MIC.
Where [10] appears, read: S. maltophilia IID 1275, read-out: MIC.
Where [11] appears, read: S. marcescens 10100, read-out: MIC.
Where [12] appears, read: S. pneumoniae J24, quinolone-resistant, read-out: MIC.
[13] abbreviates: S. pyogenes G-36, read-out: MIC.

Turning to `CC[C@H]1CN(c2c(F)cc3c(=O)c(C(=O)O)cn([C@@H]4C[C@@H]4F)c3c2OC)C[C@H]1N` [Compound No. 1, 7-[(3S,4S)-3-Amino-4-ethylpyrrolidin-1-yl]-6-fluoro-1-[(1R,2S)-2-fluorocyclopropyl]-8-methoxy-1,4-dihydro-4-oxoquinoline-3-carboxylic acid], the MIC in the series on E. coli NIHJ (E. coli NIHJ, read-out: MIC) was 6 ng/mL (≈ 0.0147 µM); in the series with E. faevcalis ATCC 19433 (setting [2]) it was 0.1 µg/mL (≈ 0.245 µM); in the series on K. pneumoniae TYPE I (setting [3]), 0.025 µg/mL (≈ 0.0614 µM); with P. Vulgalis 08601 (setting [4]), 12 ng/mL (≈ 0.0295 µM); in the series on P. aeruginosa 32104 (setting [5]), 0.2 µg/mL (≈ 0.491 µM); with P. aeruginosa 32121 (setting [6]), 0.1 µg/mL (≈ 0.245 µM). Further, the minimal inhibitory concentration (MIC) with S. aureus 870307 (setting [7]) worked out at 0.2 µg/mL (≈ 0.491 µM); in the series with S. aureus FDA 209P (setting [8]), 0.006 µg/mL (≈ 0.0147 µM); with S. epidermidis 56500 (setting [9]), 0.05 µg/mL (≈ 0.123 µM); in the series with S. flexneri 2A 5503 it was 6 ng/mL (≈ 0.0147 µM); with S. maltophilia IID 1275 (setting [10]) it was 0.05 µg/mL (≈ 0.123 µM); in the series with S. marcescens 10100 (setting [11]), 0.1 µg/mL (≈ 0.245 µM). Moreover, the MIC in the series with S. pneumoniae J24 (setting [12]) is 0.025 µg/mL (≈ 0.0614 µM); in the series with S. pyogenes G-36 (setting [13]), 0.05 µg/mL (≈ 0.123 µM). In the series on Slc:ddY male mice, the “CD50 (50% concentration for inducing convulsion), with 95% confidence limit” value (shortened to “CD50 … with 95% confidence limit”) is reported as 49.2^b) μg/5 μL/mouse. Also, the “Percentile induction of structural aberration (TA %)” value in [1] (1 μg/mL) was 0%; in [1] (3 μg/mL) it was 1%; in series [1] (10 μg/mL), 2%; in [1] (30 μg/mL) it was 3%; in series [1] (50 μg/mL), 2%; in series [1] (100 μg/mL), 7%. In series [1], the “Significant increase in number of the cells exhibiting chromosomal aberration” value was “not observed”.

Regarding `C[C@H]1CN(c2c(F)cc3c(=O)c(C(=O)O)cn4c3c2OC[C@@H]4C)C[C@H]1N` [Comparative Compound B, (3S)-10-[(3S,4S)-3-Amino-4-methylpyrrolidin-1-yl]-9-fluoro-2,3-dihydro-3-methyl-7-oxo-7H-pyrido[1,2,3-de][1,4]benzoxazine-6-carboxylic acid-hydrochloride, reference compound], the MIC was 12 ng/mL against E. coli NIHJ; 0.2 µg/mL in the series with E. faevcalis ATCC 19433; 0.05 µg/mL in the series on K. pneumoniae TYPE I; 6 ng/mL against P. Vulgalis 08601; 0.1 µg/mL with P. aeruginosa 32104 (32104); 0.025 µg/mL in the series with P. aeruginosa 32121 (32121). Moreover, the MIC in the series with S. aureus 870307 (870307) was determined as 3.13 µg/mL; against S. aureus FDA 209P, 0.012 µg/mL; in the series with S. epidermidis 56500 (56500) it was 0.1 µg/mL; in the series on S. flexneri 2A 5503, 12 ng/mL; in the series on S. maltophilia IID 1275, 0.39 µg/mL; against S. marcescens 10100 (10100), 0.05 µg/mL. The MIC with S. pneumoniae J24 (J24) and with S. pyogenes G-36 was 0.1 µg/mL each time. In addition, the “CD50 … with 95% confidence limit” value with Slc:ddY male mice is 28.6 (16.8-48.5)^a) μg/5 μL/mouse.

On to `CC[C@H]1CN(c2c(F)cc3c(=O)c(C(=O)O)cn4c3c2OC[C@@H]4C)C[C@H]1N` [Compound No. 3, (3S)-10-[(3S,4S)-3-Amino-4-ethylpyrrolidin-1-yl]-9-fluoro-2,3-dihydro-3-methyl-7-oxo-7H-pyrido[1,2,3-de][1,4]benzoxazine-6-carboxylic acid], for which the MIC in the series on E. coli NIHJ (E. coli NIHJ, read-out: MIC) amounted to 6 ng/mL (≈ 0.016 µM); in the series on E. faevcalis ATCC 19433 (setting [2]) it was 0.1 µg/mL (≈ 0.266 µM); in the series with K. pneumoniae TYPE I (setting [3]), 0.05 µg/mL (≈ 0.133 µM); in the series on P. Vulgalis 08601 (setting [4]) it was 6 ng/mL (≈ 0.016 µM); with P. aeruginosa 32104 (setting [5]), 0.1 µg/mL (≈ 0.266 µM); in the series with P. aeruginosa 32121 (setting [6]), 0.05 µg/mL (≈ 0.133 µM). Besides, the MIC in the series on S. aureus 870307 (setting [7]) worked out at 0.78 µg/mL (≈ 2.08 µM); in the series with S. aureus FDA 209P (setting [8]), 0.012 µg/mL (≈ 0.032 µM); with S. epidermidis 56500 (setting [9]), 0.05 µg/mL (≈ 0.133 µM); in the series on S. flexneri 2A 5503, 6 ng/mL (≈ 0.016 µM); in the series on S. maltophilia IID 1275 (setting [10]), 0.2 µg/mL (≈ 0.533 µM); with S. marcescens 10100 (setting [11]), 0.025 µg/mL (≈ 0.0666 µM). In addition, the minimal inhibitory concentration (MIC) with S. pneumoniae J24 (setting [12]) and in the series with S. pyogenes G-36 (setting [13]) was 0.1 µg/mL (≈ 0.266 µM) in each case. In addition, the “CD50 … with 95% confidence limit” value with Slc:ddY male mice was 64.5 (47.7-80.8) μg/5 μL/mouse. Besides, the “Percentile induction of structural aberration (TA %)” value in [1] (1 μg/mL) is 3%; in [1] (3 μg/mL), 0%; in series [1] (10 μg/mL) it was 2%; in series [1] (30 μg/mL) it was 1%; in [1] (50 μg/mL), 5%; in series [1] (100 μg/mL), 9%. Further, the “Significant increase in number of the cells exhibiting chromosomal aberration” value in series [1] was “not observed”.

The values above are taken from patent publication US7977327B2, “Substituted pyrrolidine derivative” (Daiichi Sankyo Company, Limited, priority 2004, dated 2011).
